ChEMBL document CHEMBL5696439 (Cancer Res, 2010)
Activity calls are given as the source filed them. No cut-off for these calls is given here.

What was measured:
[1] = target: RAC-beta serine/threonine-protein kinase (Homo sapiens) (UniProt P31751); assay: Inhibition of recombinant human full-length His-tagged AKT2 expressed in insect cells at 2 uM using Ser/Thr 06 as substrate measured after 1 hr by Z'-LYTE assay relative to control; conditions: Insect cell
[2] = target: Serine/threonine-protein kinase B-raf (Homo sapiens) (UniProt P15056); assay: Inhibition of recombinant human full-length GST tagged BRAF expressed in insect cells at 2 uM using Ser/Thr 03 as substrate measured after 1 hr by Z'-LYTE assay relative to control; conditions: Insect cell
Chain of Serine/threonine-protein kinase B-raf (Homo sapiens) (P15056 whole entry): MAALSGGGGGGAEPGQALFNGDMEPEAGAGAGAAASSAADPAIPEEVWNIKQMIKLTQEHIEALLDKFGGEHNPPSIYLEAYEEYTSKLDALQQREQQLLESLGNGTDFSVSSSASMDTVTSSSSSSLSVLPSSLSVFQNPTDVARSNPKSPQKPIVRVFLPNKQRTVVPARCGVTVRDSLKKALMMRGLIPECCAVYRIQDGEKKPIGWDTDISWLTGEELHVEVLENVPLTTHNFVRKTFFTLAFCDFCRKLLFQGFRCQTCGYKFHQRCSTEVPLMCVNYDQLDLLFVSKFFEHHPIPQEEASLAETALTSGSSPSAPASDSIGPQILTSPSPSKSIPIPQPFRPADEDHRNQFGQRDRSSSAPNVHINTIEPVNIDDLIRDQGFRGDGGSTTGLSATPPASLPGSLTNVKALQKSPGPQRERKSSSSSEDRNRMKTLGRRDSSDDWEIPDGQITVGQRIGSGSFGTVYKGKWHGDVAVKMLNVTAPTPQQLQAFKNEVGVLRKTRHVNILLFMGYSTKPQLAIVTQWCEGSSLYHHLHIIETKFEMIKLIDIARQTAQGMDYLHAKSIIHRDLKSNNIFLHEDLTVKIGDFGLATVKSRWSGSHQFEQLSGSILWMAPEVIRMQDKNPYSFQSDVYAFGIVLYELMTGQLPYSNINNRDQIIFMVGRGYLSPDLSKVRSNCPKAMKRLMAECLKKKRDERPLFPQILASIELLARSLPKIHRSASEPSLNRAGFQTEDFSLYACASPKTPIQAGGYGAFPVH

[3] = Inhibition of recombinant human full-length His-tagged CDK2/cyclin A expressed in insect cells at 2 uM using Ser/Thr 12 as substrate measured after 1 hr by Z'-LYTE assay relative to control; conditions: Insect cell, condition cancer
[4] = target: Macrophage colony-stimulating factor 1 receptor (Homo sapiens) (UniProt P07333); assay: Inhibition of recombinant human His-tagged CSF1R (538-910 residues) expressed in baculovirus expression system at 2 uM using Tyr 01 as substrate measured after 1 hr by Z'-LYTE assay relative to control
[5] = target: G protein-coupled receptor kinase 4 (Homo sapiens) (UniProt P32298); assay: Inhibition of recombinant human full-length GST-tagged GRK4 expressed in insect cells at 2 uM using Ser/Thr 16 as substrate measured after 1 hr by Z'-LYTE assay relative to control; conditions: Insect cell
Chain of G protein-coupled receptor kinase 4 (Homo sapiens) (P32298 whole entry, looked up): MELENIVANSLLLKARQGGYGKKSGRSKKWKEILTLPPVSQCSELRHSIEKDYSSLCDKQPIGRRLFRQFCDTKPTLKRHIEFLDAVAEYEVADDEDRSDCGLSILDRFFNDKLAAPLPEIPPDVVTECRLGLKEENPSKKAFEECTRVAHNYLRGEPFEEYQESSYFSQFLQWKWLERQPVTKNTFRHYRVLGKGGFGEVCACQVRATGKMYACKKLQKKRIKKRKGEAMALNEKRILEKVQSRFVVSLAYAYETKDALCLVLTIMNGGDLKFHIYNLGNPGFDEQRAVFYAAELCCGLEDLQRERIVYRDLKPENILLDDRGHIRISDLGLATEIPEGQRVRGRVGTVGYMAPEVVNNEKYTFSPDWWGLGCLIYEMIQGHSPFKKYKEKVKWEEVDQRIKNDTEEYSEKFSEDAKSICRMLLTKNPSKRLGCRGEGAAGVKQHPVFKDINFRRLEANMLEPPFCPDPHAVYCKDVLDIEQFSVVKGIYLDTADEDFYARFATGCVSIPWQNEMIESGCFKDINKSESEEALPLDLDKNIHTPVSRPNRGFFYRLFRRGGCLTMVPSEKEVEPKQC

[6] = target: Rhodopsin kinase GRK7 (Homo sapiens) (UniProt Q8WTQ7); assay: Inhibition of recombinant human full-length GST-tagged GRK7 expressed in insect cells at 2 uM using Ser/Thr 16 as substrate measured after 1 hr by Z'-LYTE assay relative to control; conditions: Insect cell
Chain of Rhodopsin kinase GRK7 (Homo sapiens) (Q8WTQ7 whole entry): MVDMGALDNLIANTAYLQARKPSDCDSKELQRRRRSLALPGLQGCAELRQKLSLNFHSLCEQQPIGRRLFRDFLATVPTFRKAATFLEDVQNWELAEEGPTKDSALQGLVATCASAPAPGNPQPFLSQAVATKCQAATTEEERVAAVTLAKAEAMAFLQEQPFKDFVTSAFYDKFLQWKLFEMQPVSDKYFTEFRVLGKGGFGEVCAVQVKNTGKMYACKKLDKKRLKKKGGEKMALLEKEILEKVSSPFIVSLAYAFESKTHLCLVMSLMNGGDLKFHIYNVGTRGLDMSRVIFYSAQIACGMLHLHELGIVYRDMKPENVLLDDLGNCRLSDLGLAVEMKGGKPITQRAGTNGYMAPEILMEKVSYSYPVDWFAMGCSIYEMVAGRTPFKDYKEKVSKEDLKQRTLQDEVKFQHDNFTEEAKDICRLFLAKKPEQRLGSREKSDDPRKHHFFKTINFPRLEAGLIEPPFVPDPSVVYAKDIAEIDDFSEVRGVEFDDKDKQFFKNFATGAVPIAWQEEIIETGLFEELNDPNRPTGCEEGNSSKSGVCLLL

[7] = target: Tyrosine-protein kinase ITK/TSK (Homo sapiens) (UniProt Q08881); assay: Inhibition of recombinant human full-length GST-tagged ITK expressed in insect cells at 2 uM using Tyr 01 as substrate measured after 1 hr by Z'-LYTE assay relative to control; conditions: Insect cell
[8] = target: Tyrosine-protein kinase Lck (Homo sapiens) (UniProt P06239); assay: Inhibition of recombinant human full-length His-tagged LCK expressed in insect cells at 2 uM using Tyr 02 as substrate measured after 1 hr by Z'-LYTE assay relative to control; conditions: Insect cell
[9] = target: Tyrosine-protein kinase Lyn (Homo sapiens) (UniProt P07948); assay: Inhibition of recombinant human full length His-tagged LYN B expressed in baculovirus expression system at 2 uM using Tyr 02 as substrate measured after 1 hr by Z'-LYTE assay relative to control
Chain of Tyrosine-protein kinase Lyn (Homo sapiens) (P07948 2-512 limits assumed): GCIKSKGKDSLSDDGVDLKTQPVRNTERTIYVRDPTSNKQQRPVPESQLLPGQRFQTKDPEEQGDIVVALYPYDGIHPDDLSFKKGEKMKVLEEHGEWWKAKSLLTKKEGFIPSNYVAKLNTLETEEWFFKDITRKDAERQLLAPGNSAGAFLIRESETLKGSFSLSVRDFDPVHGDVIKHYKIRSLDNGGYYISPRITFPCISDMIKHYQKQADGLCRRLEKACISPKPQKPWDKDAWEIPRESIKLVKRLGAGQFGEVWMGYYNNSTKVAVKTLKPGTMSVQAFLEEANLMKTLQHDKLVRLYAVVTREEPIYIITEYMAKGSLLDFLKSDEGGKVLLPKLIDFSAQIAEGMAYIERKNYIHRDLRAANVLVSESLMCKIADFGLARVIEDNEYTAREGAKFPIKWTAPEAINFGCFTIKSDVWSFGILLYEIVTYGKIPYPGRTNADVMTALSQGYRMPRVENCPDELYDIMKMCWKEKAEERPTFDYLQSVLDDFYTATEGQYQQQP

[10] = target: Mitogen-activated protein kinase kinase kinase 9 (Homo sapiens) (UniProt P80192); assay: Inhibition of recombinant human GST-tagged MAP3K9 (1-500 residues) expressed in insect cells at 2 uM using Ser/Thr 07 as substrate measured after 1 hr by Z'-LYTE assay relative to control; conditions: Insect cell
[11] = target: Mitogen-activated protein kinase 14 (Homo sapiens) (UniProt Q16539); assay: Inhibition of recombinant human full length GST-tagged MAPK14 expressed in E. coli at 2 uM using Ser/Thr 04 as substrate measured after 1 hr by Z'-LYTE assay relative to control
[12] = target: Hepatocyte growth factor receptor (Homo sapiens) (UniProt P08581); assay: Inhibition of recombinant human His-tagged MET (956-1390 residues) expressed in baculovirus expression system at 2 uM using Tyr 06 as substrate measured after 1 hr by Z'-LYTE assay relative to control
Chain of Hepatocyte growth factor receptor (Homo sapiens) (P08581 whole entry, the tested form may be a part): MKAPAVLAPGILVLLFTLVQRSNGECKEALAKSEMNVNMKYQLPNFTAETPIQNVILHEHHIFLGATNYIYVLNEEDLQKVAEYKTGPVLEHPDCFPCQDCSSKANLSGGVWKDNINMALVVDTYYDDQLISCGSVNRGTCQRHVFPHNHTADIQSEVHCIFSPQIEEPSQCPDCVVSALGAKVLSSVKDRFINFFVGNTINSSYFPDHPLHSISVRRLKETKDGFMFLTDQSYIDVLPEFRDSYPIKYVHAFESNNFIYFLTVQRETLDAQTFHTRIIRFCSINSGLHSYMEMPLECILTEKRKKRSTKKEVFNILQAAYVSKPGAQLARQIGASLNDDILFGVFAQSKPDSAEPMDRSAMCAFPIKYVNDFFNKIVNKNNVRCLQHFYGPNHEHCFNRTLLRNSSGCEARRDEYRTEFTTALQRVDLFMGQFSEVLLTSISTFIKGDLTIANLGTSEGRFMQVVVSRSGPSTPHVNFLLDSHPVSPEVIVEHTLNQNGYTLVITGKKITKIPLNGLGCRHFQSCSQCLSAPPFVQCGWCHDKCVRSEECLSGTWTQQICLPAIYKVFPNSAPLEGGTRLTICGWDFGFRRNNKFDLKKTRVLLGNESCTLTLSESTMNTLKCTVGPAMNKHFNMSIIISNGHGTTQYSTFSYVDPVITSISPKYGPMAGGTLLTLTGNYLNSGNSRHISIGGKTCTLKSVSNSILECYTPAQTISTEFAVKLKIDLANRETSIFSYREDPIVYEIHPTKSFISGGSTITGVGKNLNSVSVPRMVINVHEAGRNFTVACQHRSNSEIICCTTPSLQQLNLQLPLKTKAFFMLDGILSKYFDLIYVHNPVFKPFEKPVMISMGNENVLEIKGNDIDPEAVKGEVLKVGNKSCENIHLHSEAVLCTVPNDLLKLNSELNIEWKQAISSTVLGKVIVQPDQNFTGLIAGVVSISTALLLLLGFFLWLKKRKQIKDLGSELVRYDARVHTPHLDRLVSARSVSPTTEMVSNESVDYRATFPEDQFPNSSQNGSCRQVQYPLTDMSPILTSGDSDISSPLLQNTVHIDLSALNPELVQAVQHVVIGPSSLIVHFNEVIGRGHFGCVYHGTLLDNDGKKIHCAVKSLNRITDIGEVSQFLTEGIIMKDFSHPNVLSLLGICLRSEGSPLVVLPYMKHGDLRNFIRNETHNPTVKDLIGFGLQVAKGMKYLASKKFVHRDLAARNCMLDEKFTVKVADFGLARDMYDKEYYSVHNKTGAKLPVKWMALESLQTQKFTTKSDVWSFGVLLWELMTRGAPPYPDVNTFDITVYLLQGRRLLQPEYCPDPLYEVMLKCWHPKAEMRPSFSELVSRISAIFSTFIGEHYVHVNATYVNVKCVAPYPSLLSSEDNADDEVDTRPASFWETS

[13] = target: Serine/threonine-protein kinase Nek1 (Homo sapiens) (UniProt Q96PY6); assay: Inhibition of recombinant human GST-tagged NEK1 (1-505 residues) expressed in insect cells at 2 uM using Ser/Thr 07 as substrate measured after 1 hr by Z'-LYTE assay relative to control; conditions: Insect cell
[14] = target: Serine/threonine-protein kinase Nek4 (Homo sapiens) (UniProt P51957); assay: Inhibition of recombinant human full length GST-tagged NEK4 expressed in insect cells at 2 uM using Ser/Thr 17 as substrate measured after 1 hr by Z'-LYTE assay relative to control; conditions: Insect cell
Chain of Serine/threonine-protein kinase Nek4 (Homo sapiens) (P51957 whole entry, looked up): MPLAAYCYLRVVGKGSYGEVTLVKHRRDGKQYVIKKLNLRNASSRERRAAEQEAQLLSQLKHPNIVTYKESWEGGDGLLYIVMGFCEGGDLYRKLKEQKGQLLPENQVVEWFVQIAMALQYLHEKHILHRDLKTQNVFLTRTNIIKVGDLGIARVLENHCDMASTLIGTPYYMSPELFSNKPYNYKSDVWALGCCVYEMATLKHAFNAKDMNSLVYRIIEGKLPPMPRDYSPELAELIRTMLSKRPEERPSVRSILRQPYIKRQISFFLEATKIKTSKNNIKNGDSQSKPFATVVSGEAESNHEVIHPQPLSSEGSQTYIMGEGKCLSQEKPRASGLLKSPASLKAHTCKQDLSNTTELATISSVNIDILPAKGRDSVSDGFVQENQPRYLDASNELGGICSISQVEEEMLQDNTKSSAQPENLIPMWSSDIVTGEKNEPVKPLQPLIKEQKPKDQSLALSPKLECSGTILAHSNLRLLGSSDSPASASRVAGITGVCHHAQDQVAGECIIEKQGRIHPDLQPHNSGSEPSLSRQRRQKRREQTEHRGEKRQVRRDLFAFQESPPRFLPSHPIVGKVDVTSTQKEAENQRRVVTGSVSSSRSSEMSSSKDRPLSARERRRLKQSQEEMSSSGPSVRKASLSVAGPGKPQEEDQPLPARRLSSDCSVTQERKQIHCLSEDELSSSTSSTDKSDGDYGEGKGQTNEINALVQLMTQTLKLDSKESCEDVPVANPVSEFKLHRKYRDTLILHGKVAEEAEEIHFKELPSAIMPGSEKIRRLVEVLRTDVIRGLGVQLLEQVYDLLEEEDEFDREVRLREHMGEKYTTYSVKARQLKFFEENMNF

[15] = target: Serine/threonine-protein kinase PAK 2 (Homo sapiens) (UniProt Q13177); assay: Inhibition of recombinant human full length GST-tagged PAK2 expressed in insect cells at 2 uM using Ser/Thr 20 as substrate measured after 1 hr by Z'-LYTE assay relative to control; conditions: Insect cell
[16] = target: Protein kinase C zeta type (Homo sapiens) (UniProt Q05513); assay: Inhibition of recombinant human PRKCZ at 2 uM using Ser/Thr 07 as substrate measured after 1 hr by Z'-LYTE assay relative to control
[17] = target: cAMP-dependent protein kinase catalytic subunit PRKX (Homo sapiens) (UniProt P51817); assay: Inhibition of recombinant human full length GST-tagged PRKX expressed in insect cells at 2 uM using Ser/Thr 01 as substrate measured after 1 hr by Z'-LYTE assay relative to control; conditions: Insect cell
Chain of cAMP-dependent protein kinase catalytic subunit PRKX (Homo sapiens) (P51817 whole entry, the tested form may be a part): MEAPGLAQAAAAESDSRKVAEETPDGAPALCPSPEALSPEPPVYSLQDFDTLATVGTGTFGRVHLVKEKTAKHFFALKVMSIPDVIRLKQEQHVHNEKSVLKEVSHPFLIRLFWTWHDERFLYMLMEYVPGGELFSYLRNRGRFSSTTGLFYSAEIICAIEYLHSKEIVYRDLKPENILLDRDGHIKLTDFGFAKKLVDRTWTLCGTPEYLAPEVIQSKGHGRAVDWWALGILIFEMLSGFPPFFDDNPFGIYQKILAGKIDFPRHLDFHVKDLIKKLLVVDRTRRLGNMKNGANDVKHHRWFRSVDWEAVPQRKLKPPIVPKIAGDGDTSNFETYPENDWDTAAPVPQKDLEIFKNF

[18] = system: Proto-oncogene tyrosine-protein kinase receptor Ret (Homo sapiens), P07949 [V804L]; assay: Inhibition of recombinant human GST-tagged RET V804L mutant (658-1114 residues) expressed in baculovirus expression system at 2 uM using Tyr 02 as substrate measured after 1 hr by Z'-LYTE assay relative to control
[19] = target: Ribosomal protein S6 kinase alpha-3 (Homo sapiens) (UniProt P51812); assay: Inhibition of recombinant human full length His-tagged RPS6KA3 expressed in baculovirus expression system at 2 uM using Ser/Thr 06 as substrate measured after 1 hr by Z'-LYTE assay relative to control
MDA-MB-231 = assay: Antiproliferative activity against human MDA-MB-231 cells assessed as cell growth inhibition incubated for 24 hrs by MTS assay; assay type: functional, cell-based; conditions: MDA-MB-231, 24 h
MDA-MB-468 [20] = assay: Antiproliferative activity against human MDA-MB-468 cells assessed as cell growth inhibition incubated for 24 hrs by MTS assay; assay type: functional, cell-based; conditions: MDA-MB-468, 24 h
HeLa = assay: Antiproliferative activity against human HeLa cells assessed as cell growth inhibition incubated for 24 hrs by MTS assay; assay type: functional, cell-based
MDA-MB-468 [21] = assay: Induction of apoptosis in human MDA-MB-468 cells assessed as increase in G1 phase at 1 micromol/L incubated for 24 hrs by FACS analysis; assay type: functional, cell-based; conditions: dose 1.0 µmol/L
A498 = assay: Antiproliferative activity against human A498 cells assessed as reduction in cell size at 1 micromol/L incubated for 48 hrs by Flow cytometry analysis relative to control; assay type: functional; set-up: scale not given: the % may be the effect or the level left; conditions: dose 1 µmol/L, at 1 µM
A549 [22] = assay: Antitumor activity against human A549 cells xenografted in female nude mouse model assessed as substantial regression in large tumor growth at 50 mg/kg, po qd administered as 5 days on/2 days off regimen for 4 cycles; assay type: functional, organism-based; conditions: time 28.0 day
A549 [23] = assay: Antitumor activity against VHL null-human A549 cells xenografted in female nude mouse model assessed as suppression in tumor growth at 25 mg/kg, po qd administered as 5 days on/2 days off regimen for 4 cycles relative to control; assay type: functional; conditions: time 28 day

## CNC(=O)Nc1ccc(-c2nc(N3CC4CCC(C3)O4)c3cnn(C4CCC5(CC4)OCCO5)c3n2)cc1
[1]
  inhibition: 5%
[2]
  inhibition: 6%
[3]
  inhibition at 2 µM: 0%
[4]
  inhibition: 7%
[5]
  inhibition: -4%
[6]
  inhibition: 7%
[7]
  inhibition: 2%
[8]
  inhibition: 10%
[9]
  inhibition: 5%
[10]
  inhibition: 11%
[11]
  inhibition: 11%
[12]
  inhibition: 2%
[13]
  inhibition: 7%
[14]
  inhibition: 7%
[15]
  inhibition: 15%
[16]
  inhibition: 8%
[17]
  inhibition: 5%
[18]
  inhibition: 2%
[19]
  inhibition: -2%
MDA-MB-231
  IC50: 60 nM
MDA-MB-468 [20]
  IC50: 25 nM
HeLa
  IC50: 55 nM
MDA-MB-468 [21]
  Activity: Active
A498
  Activity: 83%
A549 [22]
  Activity: Active
A549 [23]
  Activity: 100%
